Data reported in patent publication US11441131B2, “Heparosan synthases and use thereof for saccharide synthesis” (The Regents of the University of California, priority 2019, dated 2022).
Where two headings read alike, the source gives them in different places.

B1: D222N (protein)
chain: MGSSHHHHHHSFEKIYTYNQALEAKLEKDKQTTSITDLYNEVAKSDLGLVKETNSANPLVSIIMTSHNTAQFIEASINSLLLQTYKNIEIIIVDDDSSDNTFEIASRIANTTSKVRVFRLNSNLGTYFAKNTGILKSKGDIIFFQDSDDVCHHERIERCVNILLANKETIAVRCAYSRLAPETQHIIKVNNMDYRLGFITLGMHRKVFQEIGFFNCTTKGSNDEFFHRIAKYYGKEKIKNLLLPLYYNTMRENSLFTDMVEWIDNHNIIQKMSDTRQHYATLFQAMHNETASHDFKNLFQFPRIYDALPVPQEMSKLSNPKIPVYINICSIPSRIAQLQRIIGILKNQCDHFHIYLDGYVEIPDFIKNLGNKATVVHCKDKDNSIRDNGKFILLEELIEKNQDGYYITCDDDIIYPSDYINTMIKKLNEYDDKAVIGLHGILFPSRMTKYFSADRLVYSFYKPLEKDKAVNVLGTGTVSFRVSLFNQFSLSDFTHSGMADIYFSLLCKKNNILQICISRPANWLTEDNRDSETLYHQYRDNDEQQTQLIMENGPWGYSSIYPLVKNHPKFTDLIPCLPFYFL
B2: I199A (protein)
chain: MGSSHHHHHHSFEKIYTYNQALEAKLEKDKQTTSITDLYNEVAKSDLGLVKETNSANPLVSIIMTSHNTAQFIEASINSLLLQTYKNIEIIIVDDDSSDNTFEIASRIANTTSKVRVFRLNSNLGTYFAKNTGILKSKGDIIFFQDSDDVCHHERIERCVNILLANKETIAVRCAYSRLAPETQHIIKVNNMDYRLGFATLGMHRKVFQEIGFFNCTTKGSDDEFFHRIAKYYGKEKIKNLLLPLYYNTMRENSLFTDMVEWIDNHNIIQKMSDTRQHYATLFQAMHNETASHDFKNLFQFPRIYDALPVPQEMSKLSNPKIPVYINICSIPSRIAQLQRIIGILKNQCDHFHIYLDGYVEIPDFIKNLGNKATVVHCKDKDNSIRDNGKFILLEELIEKNQDGYYITCDDDIIYPSDYINTMIKKLNEYDDKAVIGLHGILFPSRMTKYFSADRLVYSFYKPLEKDKAVNVLGTGTVSFRVSLFNQFSLSDFTHSGMADIYFSLLCKKNNILQICISRPANWLTEDNRDSETLYHQYRDNDEQQTQLIMENGPWGYSSIYPLVKNHPKFTDLIPCLPFYFL
B3: R195A (protein)
chain: MGSSHHHHHHSFEKIYTYNQALEAKLEKDKQTTSITDLYNEVAKSDLGLVKETNSANPLVSIIMTSHNTAQFIEASINSLLLQTYKNIEIIIVDDDSSDNTFEIASRIANTTSKVRVFRLNSNLGTYFAKNTGILKSKGDIIFFQDSDDVCHHERIERCVNILLANKETIAVRCAYSRLAPETQHIIKVNNMDYALGFITLGMHRKVFQEIGFFNCTTKGSDDEFFHRIAKYYGKEKIKNLLLPLYYNTMRENSLFTDMVEWIDNHNIIQKMSDTRQHYATLFQAMHNETASHDFKNLFQFPRIYDALPVPQEMSKLSNPKIPVYINICSIPSRIAQLQRIIGILKNQCDHFHIYLDGYVEIPDFIKNLGNKATVVHCKDKDNSIRDNGKFILLEELIEKNQDGYYITCDDDIIYPSDYINTMIKKLNEYDDKAVIGLHGILFPSRMTKYFSADRLVYSFYKPLEKDKAVNVLGTGTVSFRVSLFNQFSLSDFTHSGMADIYFSLLCKKNNILQICISRPANWLTEDNRDSETLYHQYRDNDEQQTQLIMENGPWGYSSIYPLVKNHPKFTDLIPCLPFYFL
B4: L196A (protein)
chain: MGSSHHHHHHSFEKIYTYNQALEAKLEKDKQTTSITDLYNEVAKSDLGLVKETNSANPLVSIIMTSHNTAQFIEASINSLLLQTYKNIEIIIVDDDSSDNTFEIASRIANTTSKVRVFRLNSNLGTYFAKNTGILKSKGDIIFFQDSDDVCHHERIERCVNILLANKETIAVRCAYSRLAPETQHIIKVNNMDYRAGFITLGMHRKVFQEIGFFNCTTKGSDDEFFHRIAKYYGKEKIKNLLLPLYYNTMRENSLFTDMVEWIDNHNIIQKMSDTRQHYATLFQAMHNETASHDFKNLFQFPRIYDALPVPQEMSKLSNPKIPVYINICSIPSRIAQLQRIIGILKNQCDHFHIYLDGYVEIPDFIKNLGNKATVVHCKDKDNSIRDNGKFILLEELIEKNQDGYYITCDDDIIYPSDYINTMIKKLNEYDDKAVIGLHGILFPSRMTKYFSADRLVYSFYKPLEKDKAVNVLGTGTVSFRVSLFNQFSLSDFTHSGMADIYFSLLCKKNNILQICISRPANWLTEDNRDSETLYHQYRDNDEQQTQLIMENGPWGYSSIYPLVKNHPKFTDLIPCLPFYFL
B5: Y176A (protein)
chain: MGSSHHHHHHSFEKIYTYNQALEAKLEKDKQTTSITDLYNEVAKSDLGLVKETNSANPLVSIIMTSHNTAQFIEASINSLLLQTYKNIEIIIVDDDSSDNTFEIASRIANTTSKVRVFRLNSNLGTYFAKNTGILKSKGDIIFFQDSDDVCHHERIERCVNILLANKETIAVRCAASRLAPETQHIIKVNNMDYRLGFITLGMHRKVFQEIGFFNCTTKGSDDEFFHRIAKYYGKEKIKNLLLPLYYNTMRENSLFTDMVEWIDNHNIIQKMSDTRQHYATLFQAMHNETASHDFKNLFQFPRIYDALPVPQEMSKLSNPKIPVYINICSIPSRIAQLQRIIGILKNQCDHFHIYLDGYVEIPDFIKNLGNKATVVHCKDKDNSIRDNGKFILLEELIEKNQDGYYITCDDDIIYPSDYINTMIKKLNEYDDKAVIGLHGILFPSRMTKYFSADRLVYSFYKPLEKDKAVNVLGTGTVSFRVSLFNQFSLSDFTHSGMADIYFSLLCKKNNILQICISRPANWLTEDNRDSETLYHQYRDNDEQQTQLIMENGPWGYSSIYPLVKNHPKFTDLIPCLPFYFL
B6: T200A (protein)
chain: MGSSHHHHHHSFEKIYTYNQALEAKLEKDKQTTSITDLYNEVAKSDLGLVKETNSANPLVSIIMTSHNTAQFIEASINSLLLQTYKNIEIIIVDDDSSDNTFEIASRIANTTSKVRVFRLNSNLGTYFAKNTGILKSKGDIIFFQDSDDVCHHERIERCVNILLANKETIAVRCAYSRLAPETQHIIKVNNMDYRLGFIALGMHRKVFQEIGFFNCTTKGSDDEFFHRIAKYYGKEKIKNLLLPLYYNTMRENSLFTDMVEWIDNHNIIQKMSDTRQHYATLFQAMHNETASHDFKNLFQFPRIYDALPVPQEMSKLSNPKIPVYINICSIPSRIAQLQRIIGILKNQCDHFHIYLDGYVEIPDFIKNLGNKATVVHCKDKDNSIRDNGKFILLEELIEKNQDGYYITCDDDIIYPSDYINTMIKKLNEYDDKAVIGLHGILFPSRMTKYFSADRLVYSFYKPLEKDKAVNVLGTGTVSFRVSLFNQFSLSDFTHSGMADIYFSLLCKKNNILQICISRPANWLTEDNRDSETLYHQYRDNDEQQTQLIMENGPWGYSSIYPLVKNHPKFTDLIPCLPFYFL

How the values were obtained:
His6-PmHS2 = test: Donor substrate specificity of GlcNAcT activity (HPLC), His6-PmHS2; type: biochemical, Pasteurella multocida; conditions: acceptor GlcAβ2AA
From the text: (§1) Donor substrate specificity assays. […] Chromatographic separation and detection were achieved similarly to that described above for kinetics studies.

His6-Δ80PmHS2 = test: Donor substrate specificity of GlcNAcT activity (HPLC), His6-Δ80PmHS2; type: biochemical, Pasteurella multocida; conditions: acceptor GlcAβ2AA
From the text: as §1

[1] = Reverse glycosylation assay mimicking synthetic conditions; type: biochemical; conditions: 30 mM UDP, conditions mimicking synthetic reactions
Experimental: Reactions were stopped by heating reaction mixtures at 70° C. for 10 min, followed by incubation on ice for 30 min and centrifugation at 11,337 g for 15 min. Supernatants were analyzed similarly to that described above for time-course reverse glycosylation assays.

[2] = β1-4-GlcAT activity comparison of His6-Δ80PmHS2 and its D222N and D500N mutants; type: biochemical
Experimental: Reactions were stopped by heating reaction mixtures at 70° C. for 10 min, followed by incubation on ice for 30 min and centrifugation at 11,337 g for 15 min. Supernatants were analyzed similarly to that described above for the coupled-enzyme reverse glycosylation assay.

[3] = α1-4-GlcNAcT activity comparison of His6-Δ80PmHS2 and its D222N and D500N mutants; type: biochemical
Experimental: Reactions were stopped by heating reaction mixture at 70° C. for 10 min, followed by incubation on ice for 30 min and centrifugation at 11,337 g for 15 min. Supernatants were analyzed similarly to that described above for […].

[4] = Protein expression and purification; parameters: species or system E. coli BL21 (DE3); conditions: per L culture
Experimental: Protein expression and purification. The plasmid-bearing E. coli BL21(DE3) cells were cultured in 1 L of LB-rich media (10 g/L tryptone, 5 g/L yeast extract and 10 g/L NaCl) supplemented with ampicillin (100 μg/mL). Expression of the target protein was achieved by inducing the E. coli culture with 0.1 mM of isopropyl-1-thio-β-D-galactopyranoside (IPTG) when OD600 nm reached 0.8-1.0, followed by incubating at 20° C. for 20 h with shaking at 250 rpm in a C25KC incubator shaker (New Brunswick Scientific, Edison, N.J.). Histidine-tagged target proteins were purified from cell lysate. To obtain the cell lysate, cell pellet harvested by centrifugation at 2,795 g for 50 min was resuspended (25 mL/L cell culture) in lysis buffer (Tris-HCl, 100 mM, pH 8.0 with 0.1% Triton X-100). Sonication protocol was 2 s (sonication)/3 s (rest) for a total of 6 min on ice. Lysed cells were centrifuged at 5,000 g for 50 min and the supernatant (lysate) was collected. Purification of histidine-tagged proteins from the lysate was achieved using a Ni′-resin column. The column was pre-equilibrated with 10 column volumes of binding buffer (5 mM imidazole, 0.5 M NaCl, 50 mM Tris-HCl, pH 7.5). The lysate was then loaded, and the column was washed with 10 column volumes of binding buffer and 10 column volumes of washing buffer (16 mM imidazole, 0.5 M NaCl, 50 mM Tris-HCl, pH 7.5). The target protein was eluted with Tris-HCl buffer (50 mM, pH 7.5) containing imidazole (200 mM) and NaCl (0.5 M). The fractions containing the purified enzymes were collected, and stored at 4° C.

[5] = β1-4GlcA-transferase activity of designed mutants; type: biochemical

Row | Molecule | suitability as donor substrate (His6-PmHS2) | suitability as donor substrate (His6-Δ80PmHS2) | β1-4GlcA-transferase activity [5] | also measured
1 | [N-]=[N+]=NC1C(OP(=O)(O)OP(=O)(O)OCC2OC(n3ccc(=O)[nH]c3=O)C(O)C2O)OC(CO)C(O)C1O (stereo not drawn) [UDP-GlcN3] | not suitable donor substrates | not suitable donor substrates |  | 
2 | CC(=O)NC1C(OP(=O)(O)OP(=O)(O)OCC2OC(n3ccc(=O)[nH]c3=O)C(O)C2O)OC(CN=[N+]=[N-])C(O)C1O (stereo not drawn) [UDP-GlcNAc6N3] | suitable donor substrates | suitable donor substrates |  | 
3 | CC(=O)NC1C(OP(=O)(O)OP(=O)(O)OCC2OC(n3ccc(=O)[nH]c3=O)C(O)C2O)OC(COS(=O)(=O)O)C(O)C1O (stereo not drawn) [UDP-GlcNAc6S] | not suitable donor substrates | not suitable donor substrates |  | 
4 | [N-]=[N+]=NCC(=O)N[C@H]1[C@@H](OP(=O)(O)OP(=O)(O)OC[C@H]2O[C@@H](n3ccc(=O)[nH]c3=O)[C@H](O)[C@@H]2O)O[C@H](CO)[C@@H](O)[C@@H]1O [UDP-GlcNAz] | suitable donor substrates | suitable donor substrates |  | 
5 | O=c1ccn([C@@H]2O[C@H](COP(=O)(O)OP(=O)(O)O[C@H]3O[C@H](CO)[C@@H](O)[C@H](O)[C@H]3NS(=O)(=O)O)[C@@H](O)[C@H]2O)c(=O)[nH]1 [UDP-GlcNS] | not suitable donor substrates | not suitable donor substrates |  | 
6 | O=C(N[C@H]1[C@@H](OP(=O)(O)OP(=O)(O)OC[C@H]2O[C@@H](n3ccc(=O)[nH]c3=O)[C@H](O)[C@@H]2O)O[C@H](CO)[C@@H](O)[C@@H]1O)C(F)(F)F [UDP-GlcNTFA] | suitable donor substrates | suitable donor substrates |  | 
7 | UDP-GlcNAc6NAcPh | not suitable donor substrates | not suitable donor substrates |  | 
8 | B1 |  |  |  | reverse glycosylation oligosaccharide products [1]: no reverse glycosylation oligosaccharide products were observed; β1-4-GlcAT activity relative to His6-Δ80PmHS2 [2]: lost; β1-4-GlcAT activity relative to His6-Δ80PmHS2 ([2]; listed as D291N): completely removed; α1-4-GlcNAcT activity relative to His6-Δ80PmHS2 [3]: retained; expression level [4]: 50 to 60 mg/L
9 | B2 |  |  | retained | 
10 | B3 |  |  | retained | 
11 | B4 |  |  | retained | 
12 | B5 |  |  | retained | 
13 | B6 |  |  | retained | 
